Where no end group is shown, it is not given here.
How the values were obtained:
NK-1 receptor [1] = biological target: T1, NK-1 receptor (Rattus norvegicus, UniProt P14600); conditions: rat tissues; cited from earlier work
T1 construct: pA2>6.0 both in murine and human tissues; host or cells: rat ('murine') tissues (not specified)

NK-1 receptor [2] = biological target: T2, NK-1 receptor (Homo sapiens, UniProt P25103); conditions: human tissues; cited from earlier work
T2 construct: pA2>6.0 both in murine and human tissues; host or cells: human tissues (not specified)
T2 sequence (P25103 whole entry): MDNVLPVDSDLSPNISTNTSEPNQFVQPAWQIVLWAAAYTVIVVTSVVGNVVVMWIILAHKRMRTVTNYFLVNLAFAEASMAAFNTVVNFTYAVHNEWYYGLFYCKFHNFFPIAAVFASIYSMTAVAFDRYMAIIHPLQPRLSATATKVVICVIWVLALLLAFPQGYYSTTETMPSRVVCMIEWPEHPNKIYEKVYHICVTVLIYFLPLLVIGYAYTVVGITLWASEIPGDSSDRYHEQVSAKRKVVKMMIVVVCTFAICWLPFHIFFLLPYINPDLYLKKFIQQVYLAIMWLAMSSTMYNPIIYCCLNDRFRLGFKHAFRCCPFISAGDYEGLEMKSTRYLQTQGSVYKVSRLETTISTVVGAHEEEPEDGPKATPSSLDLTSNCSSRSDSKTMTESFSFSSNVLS

[3] = test system: PC-3 human prostatic cancer cell lines; assay: Vascular density quantification (CD31 immunohistochemistry) in orthotopic PC-3 prostate tumors in nude mice; assay type: in vivo, male athymic nude mices; conditions: compared to control groups (L-703,606 also vs SP treated mice); p<0.05; 1 ng up to 1 mg; three up to 180 days
Protocol: (§1) For this studies has been used male athymic nude mices (Harlan). The mices were housed in laminar flow cabinet under pathogenic free conditions and used at 4-5 weeks of age.
(§2) The PC-3 human prostatic cancer cell lines (ECACC) were mantained in Minimum essential medium (GIBCO BRL) For in vivo studies, tumor cells in exponential growth phase were harvested by a 120 seconds treatment with tripsyn in 0.02% EDTA. After that the cells were resuspended in saline solution. 20 μl (10^5 cells) of saline solution was inoculated in nude mice prostate. The tumors were taken at different times (three up to 180 days) for analysis.
(§3) Animals were divided in groups (10 animals each one) and treated with different solutions:
(§4) physiological solution, -Sustance P (1 ng up to 1 mg), -L-703,606 (1 ng up to 1 mg), −L-703,606+Leuprolide Acetate (using dosages reported in table 1 and 2).
(§5) The treatments were made at different time (one at day until one at week). For different periods of time (three days up to 180 days).
Frozen sections of tumors have been fixed in Acetone, acetone/chloroform, acetone.
The presence of new blood vessels has been highlighted using the Rat anti-Mouse CD31 antibody, a Goat anti-Rat POX as a secondary antibody and DAB as a chromogen substrate. For quantification of blood vessels an image analysis system was employed.

[4] = test system: PC-3 human prostatic cancer cell lines; assay: Tumoral mass weight of orthotopic PC-3 prostate tumors in nude mice; assay type: in vivo, male athymic nude mices; conditions: compared to either control groups or SP treated mice; p<0.05; from 3 up to 180 days
Protocol: as §1, §2, §3, §4, §5
The animals were maitained under observation for three up to 180 days. Autoptic examinations were performed in all animals and the tumoral mass weighed.

T1 sequence (P14600 whole entry): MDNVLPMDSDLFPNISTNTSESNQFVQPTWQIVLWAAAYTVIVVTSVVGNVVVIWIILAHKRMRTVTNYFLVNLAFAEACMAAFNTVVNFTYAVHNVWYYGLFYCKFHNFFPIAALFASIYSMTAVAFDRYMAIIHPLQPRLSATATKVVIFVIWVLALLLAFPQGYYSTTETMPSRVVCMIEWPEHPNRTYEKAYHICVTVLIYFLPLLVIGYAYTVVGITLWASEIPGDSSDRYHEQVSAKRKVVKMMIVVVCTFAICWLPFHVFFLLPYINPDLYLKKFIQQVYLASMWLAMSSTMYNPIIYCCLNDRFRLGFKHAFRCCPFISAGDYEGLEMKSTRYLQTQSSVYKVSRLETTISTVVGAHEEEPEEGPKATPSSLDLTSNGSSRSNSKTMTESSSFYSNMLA

Row | Molecule | pA2 rat (NK-1 receptor [1]) | pA2 human (NK-1 receptor [2]) | CD 31 values (blood vessels density) [3] | tumoral mass weight [4]
1 | CN(Cc1ccccc1)C(=O)[C@H](Cc1ccc2ccccc2c1)NC(=O)[C@@H]1C[C@@H](O)CN1C(=O)c1cn(C)c2ccccc12 [FK 888] | 6.0 | 9.1 | – | –
2 | substance P (RPKPQQFFGLM; ends and bridges not checked; UniProt P20366 58-68, looked up) [SP, substance P (SP), plays a role in angiogenesis stimulation] | – | – | statistically significant increase | –
3 | COc1ccccc1CC(=N)N1C[C@@H]2C(=O)CCC(c3ccccc3)(c3ccccc3)[C@@H]2C1 [RP 67580] | 8.2 | 7.2 | – | –
4 | COc1ccc(-n2nnnc2C(F)(F)F)cc1CN[C@H]1CCCN[C@H]1c1ccccc1 [GR 205171] | >6.0 | >6.0 | – | –
5 | CC(C)Oc1cccc(CC(=O)N2CCC[C@](CC[N+]34CCC(c5ccccc5)(CC3)CC4)(c3ccc(Cl)c(Cl)c3)C2)c1 [SR 140333] | 7.4 | 9.8 | – | –
6 | Cc1cc(C)cc(C(=O)N2CC[C@H](NCCc3ccccc3)C[C@H]2Cc2ccccc2)c1 [CGP 47899] | >6.0 | >6.0 | – | –
7 | COc1ccccc1CN[C@H]1C2CCN(CC2)[C@H]1C(c1ccccc1)c1ccccc1 [CP 96345] | 6.8 | 9.5 | – | –
8 | Ic1ccccc1CN[C@@H]1C2CCN(CC2)[C@@H]1C(c1ccccc1)c1ccccc1 (racemic) [L-703,606] | – | – | statistically significant reduction | statistically significant reduction
9 | COc1ccccc1CN[C@H]1CCCN[C@H]1c1ccccc1 [CP 99994] | 6.1 | 8.9 | – | –
10 | Cc1ccc(CC(=O)N(C)[C@H](Cc2ccc3ccccc3c2)C(=O)N[C@@H]2CCCC[C@@H]2NC(=O)c2c[nH]c3ccccc23)cc1 [MEN 11467] | >6.0 | >6.0 | – | –

From US6576638B1, “Use of substance P antagonists in the treatment of the adenocarcinomas” (Biopolis S.p.A., priority 1999, dated 2003)
